Results as given in PubChem BioAssay AID1918933 (Molecular Pharmacology Branch, DTP, NCI, 2023).

System: 186277-243-T-J2-PDC complex spheroid viability
Assay: Anticancer human tumor 186277-243-T-J2-PDC patient-derived colon adenocarcinoma cell line growth inhibition
Details: for IC50: curve of first compound; for viability, T/C: stronger effect = lower value; active = viability on the fitted dose curve at most 10% of control; inactive = the rest
In short: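 Drug combinations with the LSD1 inhibitor iadademstat tested on tumor cells co-cultured as spheroids with endothelial cells and mesenchymal stem cells. Concentrations descended in half-log increments from clinical Cmax or 10 microM.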

[1] = second compound 0.1 µM, first compound 0.00316 µM
[2] = second compound 0.1 µM, first compound 0.01 µM
[3] = second compound 0.1 µM, first compound 0.0316 µM
[4] = second compound 0.1 µM, first compound 0.1 µM
[5] = second compound 0.1 µM, first compound 0.316 µM
[6] = second compound 0.1 µM, first compound 1 µM
[7] = second compound 0.316 µM, first compound 0.00316 µM
[8] = second compound 0.316 µM, first compound 0.01 µM
[9] = second compound 0.316 µM, first compound 0.0316 µM
[10] = second compound 0.316 µM, first compound 0.1 µM
[11] = second compound 0.316 µM, first compound 0.316 µM
[12] = second compound 0.316 µM, first compound 1 µM
[13] = second compound 1 µM, first compound 0.00316 µM
[14] = second compound 1 µM, first compound 0.01 µM
[15] = second compound 1 µM, first compound 0.0316 µM
[16] = second compound 1 µM, first compound 0.1 µM
[17] = second compound 1 µM, first compound 0.316 µM
[18] = second compound 1 µM, first compound 1 µM
[19] = second compound 3.16 µM, first compound 0.00316 µM
[20] = second compound 3.16 µM, first compound 0.01 µM
[21] = second compound 3.16 µM, first compound 0.0316 µM
[22] = second compound 3.16 µM, first compound 0.1 µM
[23] = second compound 3.16 µM, first compound 0.316 µM
[24] = second compound 3.16 µM, first compound 1 µM
[25] = second compound 10 µM, first compound 0.00316 µM
[26] = second compound 10 µM, first compound 0.01 µM
[27] = second compound 10 µM, first compound 0.0316 µM
[28] = second compound 10 µM, first compound 0.1 µM
[29] = second compound 10 µM, first compound 0.316 µM
[30] = second compound 10 µM, first compound 1 µM
[31] = second compound 0.1 µM, first compound 0.00949 µM
[32] = second compound 0.1 µM, first compound 0.03 µM
[33] = second compound 0.1 µM, first compound 0.0949 µM
[34] = second compound 0.1 µM, first compound 0.3 µM
[35] = second compound 0.316 µM, first compound 0.00949 µM
[36] = second compound 0.316 µM, first compound 0.03 µM
[37] = second compound 0.316 µM, first compound 0.0949 µM
[38] = second compound 0.316 µM, first compound 0.3 µM
[39] = second compound 1 µM, first compound 0.00949 µM
[40] = second compound 1 µM, first compound 0.03 µM
[41] = second compound 1 µM, first compound 0.0949 µM
[42] = second compound 1 µM, first compound 0.3 µM
[43] = second compound 3.16 µM, first compound 0.00949 µM
[44] = second compound 3.16 µM, first compound 0.03 µM
[45] = second compound 3.16 µM, first compound 0.0949 µM
[46] = second compound 3.16 µM, first compound 0.3 µM
[47] = second compound 10 µM, first compound 0.00949 µM
[48] = second compound 10 µM, first compound 0.03 µM
[49] = second compound 10 µM, first compound 0.0949 µM
[50] = second compound 10 µM, first compound 0.3 µM
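Also: 7 day exposure to compounds.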
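For viability, T/C in this document: 100% = DMSO vehicle control viability.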

CC1COCCN1c1cc(-c2ccnn2C)c2ccnc(-c3ccn[nH]3)c2n1 (stereo not given) + NC1CC1c1ccc(-c2cccc(O)c2)cc1
active: viability, T/C [4] 8.39% | viability, T/C [5] 9.56% | viability, T/C [6] 6.55% | viability, T/C [10] 8.74% | viability, T/C [11] 8.51% | viability, T/C [12] 6.53% | viability, T/C [16] 7.9% | viability, T/C [17] 8.7% | viability, T/C [18] 5.94% | viability, T/C [22] 8.9% | viability, T/C [23] 9.05% | viability, T/C [24] 6.86% | viability, T/C [28] 8.33% | viability, T/C [29] 8.45% | viability, T/C [30] 7.35%
< 3.16 nM: IC50 (second compound 0.1 µM) | IC50 (second compound 0.316 µM) | IC50 (second compound 1 µM) | IC50 (second compound 3.16 µM) | IC50 (second compound 10 µM)
inactive: viability, T/C [1] 20.3% | viability, T/C [2] 15.9% | viability, T/C [3] 9.71% | viability, T/C [7] 19.9% | viability, T/C [8] 16.7% | viability, T/C [9] 10.2% | viability, T/C [13] 20.7% | viability, T/C [14] 15.4% | viability, T/C [15] 10.2% | viability, T/C [19] 22.6% | viability, T/C [20] 17.3% | viability, T/C [21] 10.9% | viability, T/C [25] 18% | viability, T/C [26] 15.5% | viability, T/C [27] 10.1%

CC1COCCN1c1cc(C2(S(C)(=N)=O)CC2)nc(-c2ccnc3[nH]ccc23)n1 (stereo not given) + NC1CC1c1ccc(-c2cccc(O)c2)cc1
872 nM: IC50 (second compound 10 µM)
1190 nM: IC50 (second compound 3.16 µM)
1060 nM: IC50 (second compound 0.1 µM)
1140 nM: IC50 (second compound 0.316 µM)
active: viability, T/C (second compound 0.1 µM, first compound 3.16 µM) 9.5% | viability, T/C (second compound 0.1 µM, first compound 10 µM) 5.47% | viability, T/C (second compound 0.316 µM, first compound 10 µM) 5.49% | viability, T/C (second compound 1 µM, first compound 10 µM) 5.36% | viability, T/C (second compound 3.16 µM, first compound 3.16 µM) 11.6% | viability, T/C (second compound 3.16 µM, first compound 10 µM) 6.19% | viability, T/C (second compound 10 µM, first compound 3.16 µM) 8% | viability, T/C (second compound 10 µM, first compound 10 µM) 4.85%
1270 nM: IC50 (second compound 1 µM)
inactive: viability, T/C [3] 102% | viability, T/C [4] 99.8% | viability, T/C [5] 99.6% | viability, T/C [6] 52.1% | viability, T/C [9] 95.4% | viability, T/C [10] 97.8% | viability, T/C [11] 92.2% | viability, T/C [12] 55% | viability, T/C (second compound 0.316 µM, first compound 3.16 µM) 10.5% | viability, T/C [15] 108% | viability, T/C [16] 108% | viability, T/C [17] 105% | viability, T/C [18] 59.5% | viability, T/C (second compound 1 µM, first compound 3.16 µM) 12.5% | viability, T/C [21] 104% | viability, T/C [22] 104% | viability, T/C [23] 109% | viability, T/C [24] 57.5% | viability, T/C [27] 106% | viability, T/C [28] 89.6% | viability, T/C [29] 92.7% | viability, T/C [30] 44.3%

CCN(c1cc(-c2ccc(CN3CCOCC3)cc2)cc(C(=O)NCc2c(C)cc(C)[nH]c2=O)c1C)C1CCOCC1 + NC1CC1c1ccc(-c2cccc(O)c2)cc1
inactive: viability, T/C [31] 92% | viability, T/C [32] 113% | viability, T/C [33] 113% | viability, T/C [34] 112% | viability, T/C (second compound 0.1 µM, first compound 0.949 µM) 123% | viability, T/C (second compound 0.1 µM, first compound 3 µM) 28.4% | viability, T/C [35] 107% | viability, T/C [36] 113% | viability, T/C [37] 129% | viability, T/C [38] 120% | viability, T/C (second compound 0.316 µM, first compound 0.949 µM) 120% | viability, T/C (second compound 0.316 µM, first compound 3 µM) 28.6% | viability, T/C [39] 104% | viability, T/C [40] 111% | viability, T/C [41] 121% | viability, T/C [42] 116% | viability, T/C (second compound 1 µM, first compound 0.949 µM) 120% | viability, T/C (second compound 1 µM, first compound 3 µM) 25.8% | viability, T/C [43] 106% | viability, T/C [44] 113% | viability, T/C [45] 111% | viability, T/C [46] 108% | viability, T/C (second compound 3.16 µM, first compound 0.949 µM) 124% | viability, T/C (second compound 3.16 µM, first compound 3 µM) 27.8% | viability, T/C [47] 100% | viability, T/C [48] 99.7% | viability, T/C [49] 88.4% | viability, T/C [50] 107% | viability, T/C (second compound 10 µM, first compound 0.949 µM) 103% | viability, T/C (second compound 10 µM, first compound 3 µM) 23.5%
2010 nM: IC50 (second compound 10 µM)
2190 nM: IC50 (second compound 1 µM)
2220 nM: IC50 (second compound 0.1 µM) | IC50 (second compound 3.16 µM)
2280 nM: IC50 (second compound 0.316 µM)

Nc1ncn(C2CC(O)C(CO)S2)c(=O)n1 (stereo not given) + NC1CC1c1ccc(-c2cccc(O)c2)cc1
88.8 nM: IC50 (second compound 0.316 µM)
active: viability, T/C [38] 9.74% | viability, T/C [50] 8.69%
91.4 nM: IC50 (second compound 1 µM)
79.5 nM: IC50 (second compound 10 µM)
inactive: viability, T/C (second compound 0.1 µM, first compound 0.000949 µM) 113% | viability, T/C (second compound 0.1 µM, first compound 0.003 µM) 123% | viability, T/C [31] 125% | viability, T/C [32] 143% | viability, T/C [33] 53.8% | viability, T/C [34] 10.9% | viability, T/C (second compound 0.316 µM, first compound 0.000949 µM) 103% | viability, T/C (second compound 0.316 µM, first compound 0.003 µM) 119% | viability, T/C [35] 110% | viability, T/C [36] 129% | viability, T/C [37] 46% | viability, T/C (second compound 1 µM, first compound 0.000949 µM) 102% | viability, T/C (second compound 1 µM, first compound 0.003 µM) 106% | viability, T/C [39] 130% | viability, T/C [40] 128% | viability, T/C [41] 47.7% | viability, T/C [42] 10.7% | viability, T/C (second compound 3.16 µM, first compound 0.000949 µM) 113% | viability, T/C (second compound 3.16 µM, first compound 0.003 µM) 111% | viability, T/C [43] 105% | viability, T/C [44] 137% | viability, T/C [45] 50.9% | viability, T/C [46] 10.3% | viability, T/C (second compound 10 µM, first compound 0.000949 µM) 93.8% | viability, T/C (second compound 10 µM, first compound 0.003 µM) 94.1% | viability, T/C [47] 104% | viability, T/C [48] 107% | viability, T/C [49] 41%
105 nM: IC50 (second compound 0.1 µM)
97.4 nM: IC50 (second compound 3.16 µM)

O=C(C=Cn1cnc(-c2cc(C(F)(F)F)cc(C(F)(F)F)c2)n1)NNc1cnccn1 + NC1CC1c1ccc(-c2cccc(O)c2)cc1
inactive: viability, T/C [1] 97.5% | viability, T/C [2] 96% | viability, T/C [3] 84.8% | viability, T/C [4] 15.7% | viability, T/C [7] 104% | viability, T/C [8] 105% | viability, T/C [9] 88.3% | viability, T/C [10] 13.8% | viability, T/C [13] 104% | viability, T/C [14] 106% | viability, T/C [15] 93.1% | viability, T/C [16] 15.5% | viability, T/C [19] 110% | viability, T/C [20] 116% | viability, T/C [21] 91% | viability, T/C [22] 14% | viability, T/C [25] 94.1% | viability, T/C [26] 95.2% | viability, T/C [27] 78.8% | viability, T/C [28] 13.3%
57.2 nM: IC50 (second compound 0.316 µM)
56.5 nM: IC50 (second compound 0.1 µM)
58.4 nM: IC50 (second compound 3.16 µM)
52.5 nM: IC50 (second compound 10 µM)
active: viability, T/C [5] 2.81% | viability, T/C [6] 1.29% | viability, T/C [11] 2.94% | viability, T/C [12] 1.28% | viability, T/C [17] 3.14% | viability, T/C [18] 1.35% | viability, T/C [23] 2.92% | viability, T/C [24] 1.47% | viability, T/C [29] 3.41% | viability, T/C [30] 1.57%
60 nM: IC50 (second compound 1 µM)
